Results: patent US20120142584A1, “NOVEL TRANSPORTER CONSTRUCTS AND TRANSPORTER CARGO CONJUGATE MOLECULES” (priority 2008, published 2012)

Assay: digestion of TAT derived transporter constructs in 10% and 50% human serum at 37° C.
Conditions: 10% and 50% human serum at 37° C. until complete degradation
Method: The table shown in FIG. 2 illustrates the amino acid sequences of these TAT derived transporter constructs with respect to their molecular weight (Mw) and pl-values (see FIG. 2). • The digestion was carried out in 10% and 50% human serum at 37° C. until complete degradation of these TAT derived transporters construct.

With N=C(N)NCCC[C@H](NC(=O)[C@H](CCCNC(=N)N)NC(=O)[C@H](CCCNC(=N)N)NC(=O)[C@H](CCC(N)=O)NC(=O)[C@H](CCCNC(=N)N)NC(=O)[C@H](CCCNC(=N)N)NC(=O)[C@H](CCCCN)NC(=O)[C@H](CCCCN)NC(=O)[C@@H](N)CCCNC(=N)N)C(=O)O [L-TAT] as the compound, how does the “degradation in human serum” value read?
The value was “degraded too early”.
